US6294674A, “Dibenzofuran sulfonamide matrix metalloproteinase inhibitors” (priority 1999, dated 2001)
pIC50: −log10 of the molar value. Read-outs that look alike come from different tables or passages of the source.

What was measured:
MMP01 = biological target: T1, MMP01 (Homo sapiens, UniProt P03956); assay: Thiopeptolide assay, MMP01; type: biochemical
T1 construct: purchased Washington University School of Medicine, St. Louis, Mo
T1 sequence (P03956 100-469): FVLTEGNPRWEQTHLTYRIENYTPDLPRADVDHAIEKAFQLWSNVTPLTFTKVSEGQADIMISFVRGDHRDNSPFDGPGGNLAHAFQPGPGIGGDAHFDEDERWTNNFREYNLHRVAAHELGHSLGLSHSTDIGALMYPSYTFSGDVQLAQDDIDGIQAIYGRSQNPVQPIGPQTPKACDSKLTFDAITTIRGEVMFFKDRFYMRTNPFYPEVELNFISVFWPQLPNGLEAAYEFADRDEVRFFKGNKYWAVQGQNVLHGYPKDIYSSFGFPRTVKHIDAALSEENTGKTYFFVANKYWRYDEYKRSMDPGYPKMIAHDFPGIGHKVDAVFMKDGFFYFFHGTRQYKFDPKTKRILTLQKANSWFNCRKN

MMP13 = assay: Thiopeptolide assay, MMP13; type: biochemical, human; details: Table 1
Method: MMP01, MMP07, MMP09, and MMP13 activity was assayed in a method similar to MMP02 and MMP03 (SCD and GCD). MMP01 and MMP09 can be obtained from Washington University School of Medicine, St. Louis, Mo. MMP07 can be obtained in accordance with the known procedure set forth by Ye QZ, Johnson L. L., and Baragi V., "Gene Syntheses and Expression in E. coli for PUMP, a Human Matrix Metalloproteinase" Biochem. and Biophys. […] MMP 13 can be obtained in accordance with the known procedure set forth by Freije J. M. P., et al., "Molecular Cloning and Expression of Collegenase-3, a Novel Human Matrix Metalloproteinase Produced by Breast Carcinomas" J. Bio.
Hydrolysis of the thiopeptolide substrate Ac-Pro-Leu-Gly-thioester-Leu-Leu-Gly-OEt (Bachem) is used as the primary screen to determine IC50 values for MMP inhibitors. A 100 μL reaction contains 1 mM 5,5'-dithiobis(2-nitrobenzoic acid) (DTNB), 100 μM substrate, 0.1% Brij, enzyme, and inhibitor in the appropriate reaction buffer. Activated full-length enzymes are assayed at 5 nM, Stromelysin Catalytic Domain (SCD) at 10 nM, and Gelatinase A Catalytic Domain (GaCD) at 1 nM. Inhibitors are screened from 100 μM to 1 nM. Full-length enzymes are assayed in 50 mM HEPES, 10 mM CaCl2, pH 7.0; SCD in 50 mM MES, 10 mM CaCl2, pH 6.0; and GaCD in 50 mM MOPS, 10 mM CaCl2, 10 μM ZnCl2, pH 7.0.

[1] = biological target: T2, stromelysin-1 catalytic domain (MMP03) (Homo sapiens, UniProt P08254); assay: Thiopeptolide assay, stromelysin-1 catalytic domain (SCD, MMP03); type: biochemical
T2 construct: SCD (stromelysin-1 catalytic domain); made in house; host or cells: Escherichia coli
T2 sequence (P08254 100-272 limits assumed): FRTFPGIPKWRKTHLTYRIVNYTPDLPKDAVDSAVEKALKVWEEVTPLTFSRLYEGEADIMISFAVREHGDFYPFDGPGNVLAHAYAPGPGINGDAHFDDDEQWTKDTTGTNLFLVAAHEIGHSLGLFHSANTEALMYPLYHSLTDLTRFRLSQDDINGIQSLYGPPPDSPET

[2] = biological target: gelatinase A catalytic domain (MMP02); assay: Thiopeptolide assay, gelatinase A catalytic domain (GCD, MMP02); type: biochemical
MMP07 = biological target: T3, MMP07 (Homo sapiens, UniProt P09237); assay: Thiopeptolide assay, MMP07; type: biochemical
T3 construct: made in house; host or cells: Escherichia coli
T3 sequence (P09237 95-267): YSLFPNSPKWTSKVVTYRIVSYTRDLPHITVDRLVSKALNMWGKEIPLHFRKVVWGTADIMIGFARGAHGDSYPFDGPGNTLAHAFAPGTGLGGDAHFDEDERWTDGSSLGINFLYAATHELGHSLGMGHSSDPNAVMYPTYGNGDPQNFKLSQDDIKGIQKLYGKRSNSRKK

[3] = system: human ovarian carcinoma xenografts; details: Davies, et al., Cancer Res., 1993; cited from earlier work
MMP-13CD = assay: Thiopeptolide assay, MMP-13CD; type: biochemical, human; details: Tables 2, 3, 5, 7
[4] = Table 1, SCD, read-out: IC50 MMP03
[5] = Table 1, GCD, read-out: IC50 MMP02
[6] = Tables 2, 3, 5, 7, read-out: IC50 MMP1
[7] = Tables 2, 3, 5, 7, read-out: IC50 MMP 3CD
[8] = Tables 2, 3, 5, 7, read-out: IC50 MMP-2CD
[9] = Tables 2, 3, 5, 7, read-out: IC50 MMP-7

Row | pIC50 (MMP01; Table 1, read-out: IC50 MMP01) | pIC50 (MMP13) | pIC50 [1, 4] | pIC50 [2, 5] | pIC50 (MMP07; Table 1, read-out: IC50 MMP07) | pIC50 (MMP01; [6]) | pIC50 [1, 7] | pIC50 [2, 8] | pIC50 (MMP-13CD) | pIC50 (MMP07; [9]) | Molecule | survival [3] | tumor burden [3]
1 | 4.00 | 5.24 | 5.89 | 6.11 | 4.09 | – | – | – | – | – | O=C(O)[C@H](CCc1ccccc1)NS(=O)(=O)c1ccc2sc3ccccc3c2c1 [Example 7, 2-(Dibenzothiophene-2-sulfonylamino)-4phenyl-butyric acid] | – | –
2 | 4.00 | 5.15 | 5.43 | 5.62 | 4.06 | – | – | – | – | – | CCCc1ccc(C(=O)CC(NS(=O)(=O)c2ccc3oc4ccccc4c3c2)C(=O)O)cc1 (centres unmarked) [Example 6] | – | –
3 | 5.46 | 7.49 | 7.89 | 8.42 | 5.92 | – | – | – | – | – | O=C(O)[C@H](CCc1ccccc1)NS(=O)(=O)c1ccc2c(c1)oc1ccccc12 [Example 8] | – | –
4 | 4.41 | 6.55 | 6.49 | 7.12 | 5.18 | – | – | – | – | – | O=C(CC[C@H](NS(=O)(=O)c1ccc2oc3ccccc3c2c1)C(=O)O)NCCc1ccccc1 [Example 5, 2-(Dibenzofuran-2-sulfonylamino)-4-phenethylcarbamoyl-butyric acid] | – | –
5 | – | – | – | – | – | < 4.00 | 5.77 | 5.96 | 5.36 | < 4.00 | O=C(CCCc1cccs1)NCCCCC(NS(=O)(=O)c1ccc2oc3ccccc3c2c1)C(=O)O (centres unmarked) [Example A35, 2-(Dibenzofuran-2-sulfonylamino)-6-[4-thiophen-2-yl-butyrylamino)-hexanoic acid] | – | –

More lines, now with the values behind:

Row | Molecule | pIC50 (MMP01; Table 1, read-out: IC50 MMP01) | pIC50 (MMP13) | pIC50 [1, 4] | pIC50 [2, 5] | pIC50 (MMP07; Table 1, read-out: IC50 MMP07) | pIC50 (MMP01; [6]) | pIC50 [1, 7] | pIC50 [2, 8] | pIC50 (MMP-13CD) | pIC50 (MMP07; [9]) | survival [3] | tumor burden [3]
6 | CNC(=O)[C@H](Cc1ccccc1)NC(=O)[C@H](CC(C)C)[C@H](CSc1cccs1)C(=O)NO [BB-94] | – | – | – | – | – | – | – | – | – | – | prolonged the survival of mice | decreased the tumor burden
7 | COc1ccc(OCC(=O)NCCCCC(NS(=O)(=O)c2ccc3oc4ccccc4c3c2)C(=O)O)cc1 (centres unmarked) [Example A13, 2-(Dibenzofuran-2-sulfonylamino)-6-[2-(4-methoxy-phenoxy)-acetylamino]-hexanoic acid] | – | – | – | – | – | < 4.00 | 5.64 | 5.92 | 5.14 | < 4.00 | – | –
8 | CC(=O)Nc1ccc(S(=O)(=O)NCCCCC(NS(=O)(=O)c2ccc3oc4ccccc4c3c2)C(=O)O)cc1 (centres unmarked) [Example D5, 6-(4-Acetylamino-benzensulfonylamino)-2-(dibenzofuran-2-sulfonylamino)-hexanoic acid] | – | – | – | – | – | < 4.00 | 5.07 | 5.92 | 5.11 | < 4.00 | – | –
9 | CC(C)(C)c1ccc(OCC(=O)NCCCCC(NS(=O)(=O)c2ccc3oc4ccccc4c3c2)C(=O)O)cc1 (centres unmarked) [Example A10, 6-[2-(4-tert-Butyl-phenoxy)actylamino]-2-(dibenzofuran-2-sulfonylamino)-hexanoic acid] | – | – | – | – | – | < 4.00 | 4.58 | 5.03 | 4.20 | < 4.00 | – | –
10 | 2-(Dibenzofuran-2-sulfonylamino)-pentanedioic acid 1-tert-butyl Ester [Example 4] | 4.04 | 6.46 | 6.34 | 6.92 | 5.43 | – | – | – | – | – | – | –
